Data as given in patent US6495568B1, “Hydroxamic acid derivatives as matrix metalloprotease (MMP) inhibitors” (Warner-Lambert Company, priority 1997, dated 2002).

What was measured:
MMP-3 = target: T1, MMP-3 (Homo sapiens, UniProt P08254); test: Inhibition of MMP-3 (fluorogenic peptide cleavage); assay type: biochemical; details: in vitro, catalytic domain MMP-3
T1 construct: Catalytic domains MMP-2, MMP-3 and MMP-9 were prepared in Pfizer Central Research laboratories; made in house
Procedure: (§1) The biological activities of the compounds of the present invention were determined by the following test methods, which are based on the ability of the compounds to inhibit the cleavage of various fluorogenic peptides by MMPs 1, 2, 3, 9, 13 and 14.
(§2) The assays for MMPs 2, 3, 9 and 14 are based upon the original protocol described in FEBS, 1992, 296, 263, with the minor modifications described below.
(§3) Inhibition of MMP-2, MMP-3 and MMP-9
(§4) Catalytic domains MMP-2, MMP-3 and MMP-9 were prepared in Pfizer Central Research laboratories. A stock solution of MMP-2, MMP-3 or MMP-9 (1 μM) was activated by the addition of APMA. For MMP-2 and MMP-9, a final concentration of 1 mM APMA was added, followed by incubation for 1 hour at 37° C. MMP-3 was activated by the addition of 2 mM APMA, followed by incubation for 3 hours at 37° C. The enzymes were then diluted in Tris-HCl assay buffer (100 mM Tris, 100 mM NaCl, 10 mM CaCl2 and 0.16% Brij 35, pH 7.5) to a concentration of 10 nM. The final concentration of enzyme used in the assays was 1 nM.
(§5) The fluorogenic substrate used in this screen was Mca-Arg-Pro-Lys-Pro-Tyr-Ala-Nva-Trp-Met-Lys(Dnp)-NH2 (Bachem Ltd., Essex, UK) as originally described in J.Biol.Chem., 1994, 269, 20952. This substrate was selected because it has a balanced hydrolysis rate against MMPs 2, 3 and 9 (kcat/km of 54,000, 59,400 and 55,300 s^−1 M^−1 respectively). The final substrate concentration used in the assay was 5 μM.
(§6) Determination of Enzyme Inhibition
(§7) The test compound was dissolved in dimethyl sulphoxide and diluted with assay buffer so that no more than 1% dimethyl sulphoxide was present. Test compound and enzyme were added to each well of a 96 well plate and allowed to equilibrate for 15 minutes at 37° C. in an orbital shaker prior to the addition of substrate. Plates were then incubated for 1 hour at 37° C., prior to determination of fluorescence using a fluorimeter (Fluostar; BMG Lab Technologies, Aylesbury, UK) at an excitation wavelength of 328 nm and emission wavelength of 393 nm. The potency of inhibition was measured from the amount of substrate cleavage obtained using a range of test compound concentrations and, from the resulting dose-response curve, an IC50 value (the concentration of inhibitor required to inhibit 50% of the enzyme activity) was calculated.

MMP-2 = target: T2, MMP-2 (Homo sapiens, UniProt P08253); test: Inhibition of MMP-2 (fluorogenic peptide cleavage); assay type: biochemical; details: in vitro, catalytic domain MMP-2
T2 construct: Catalytic domains MMP-2, MMP-3 and MMP-9 were prepared in Pfizer Central Research laboratories
T2 sequence (P08253 with tags, fused parts or gaps DEL222-396 limits assumed): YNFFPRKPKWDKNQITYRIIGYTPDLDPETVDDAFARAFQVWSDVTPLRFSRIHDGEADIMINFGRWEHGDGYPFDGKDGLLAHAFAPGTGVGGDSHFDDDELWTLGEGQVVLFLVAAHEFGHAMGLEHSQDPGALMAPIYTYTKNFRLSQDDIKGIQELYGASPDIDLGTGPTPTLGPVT
Procedure: as §1, §2, §3, §4, §5, §6, §7

Human recombinant MMP-13 = target: T3, Human recombinant MMP-13 (Homo sapiens, UniProt P45452); test: Inhibition of MMP-13 (fluorogenic peptide cleavage); assay type: biochemical; details: in vitro
T3 construct: purchased PanVera Corporation (Madison, Wis.)
Procedure: as §1
Human recombinant MMP-13 was prepared by PanVera Corporation (Madison, Wis.) and characterised at Pfizer Central Research laboratories. A 1.9 mg/ml stock solution was activated with 2 mM APMA for 2 hours at 37° C. MMP-13 was then diluted in assay buffer (50 mM Tris, 200 mM NaCl, 5 mM CaCl2, 20 μM ZnCl2 and 0.02% Brij 35, pH 7.5) to a concentration of 5.3 nM. The final concentration of enzyme used in the assay was 1.3 nM.
The fluorogenic substrate used in this screen was Dnp-Pro-Cha-Gly-Cys(Me)-His-Ala-Lys(NMA)-NH2. The final substrate concentration used in the assay was10 μM.
as §6
The test compound was dissolved in dimethyl sulphoxide and diluted with assay buffer so that no more than 1% dimethyl sulphoxide was present. Test compound and enzyme were added to each well of a 96 well plate. The addition of substrate to each well initiated the reaction. Fluorescence intensity was determined using a 96 well plate fluorimeter (Cytofluor II; PerSeptive Biosystems, Inc., Framingham, Mass.) at an excitation wavelength of 360 nm and emission wavelength of 460 nm. […]

[1] = tested on: human ovarian carcinoma xenografts; details: mice carrying human ovarian carcinoma xenografts; Cancer Res., 1993, 53, 2087; cited from earlier work

T1 sequence (P08254 100-272 limits assumed): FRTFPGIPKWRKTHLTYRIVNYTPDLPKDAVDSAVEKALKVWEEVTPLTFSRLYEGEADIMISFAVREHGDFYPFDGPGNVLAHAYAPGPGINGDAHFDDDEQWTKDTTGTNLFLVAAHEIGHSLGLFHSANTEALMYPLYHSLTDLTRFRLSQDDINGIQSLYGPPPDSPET

IC50 (MMP-3) [nM]	IC50 (MMP-2) [nM]	melting point [°C]	IC50 (Human recombinant MMP-13) [nM]	SMILES	survival [1]	tumour burden [1]
26	38	200 to 201	25	O=C(CS(=O)(=O)N1CCC(c2ccc(-c3ccccc3)cc2)CC1)NO [Example 3, N-Hydroxy-2-[4-(4-phenylphenyl)piperidin-1-ylsulphonyl]acetamide]	–	–
16	315	190 to 191	28	Cc1cc(C2=CCN(S(=O)(=O)CC(=O)NO)CC2)ccc1-c1ccccc1 [Example 2, N-Hydroxy-2-[4-(3-methyl-4-phenylphenyl)-1,2,3,6-tetrahydropyridin-1-ylsulphonyl]acetamide]	–	–

More lines, now with the values behind:

SMILES	IC50 (MMP-3) [nM]	IC50 (MMP-2) [nM]	melting point [°C]	IC50 (Human recombinant MMP-13) [nM]	survival [1]	tumour burden [1]
C=CCC(C)(C(=O)NO)S(=O)(=O)N1CC=C(c2ccc(-c3ccccc3)c(C)c2)CC1 (racemic) [Example 15, N-Hydroxy-2(R,S)-methyl-2-[4-(3-methyl-4-phenylphenyl)-1,2,3,6-tetrahydropyridin-1-ylsulphonyl]pent-4-enamide]	20	173	–	–	–	–
Cc1cc(C2=CCN(S(=O)(=O)CC(=O)NO)CC2)ccc1-c1ccc2c(c1)OCO2 [Example 56, N-Hydroxy-2-{4-[4-(1,3-benzodioxol-5-yl)-3-methylphenyl]-1,2,3,6-tetrahydropyridin-1-ylsulphonyl}acetamide]	15	387	165 to 167	–	–	–
CNC(=O)[C@H](Cc1ccccc1)NC(=O)[C@H](CC(C)C)[C@H](CSc1cccs1)C(=O)NO [BB-94]	–	–	–	–	prolong the survival	decrease the tumour burden
Cc1cc(C2=CCN(S(=O)(=O)C(C)(C)C(=O)NO)CC2)ccc1-c1cnc2ccccc2c1 [Example 40, N-Hydroxy-2-methyl-2-{4-[3-methyl-4-(quinolin-3-yl)phenyl]-1,2,3,6-tetrahydropyridin-1-ylsulphonyl}propanamide]	18	525	158 to 160	–	–	–
COc1cccc(-c2ccc(C3CCN(S(=O)(=O)C4(C(=O)NO)Cc5ccccc5C4)CC3)cc2C)c1 [Example 50, N-Hydroxy-2-{4-[4-(3-methoxyphenyl)-3-methylphenyl]piperidin-1-ylsulphonyl}indane-2-carboxymide]	23	1910	199 to 202	–	–	–
CCOc1cccc(-c2ccc(C3=CCN(S(=O)(=O)C4(C(=O)NO)CCOCC4)CC3)cc2C)c1 [Example 28, N-Hydroxy-4-{4-[4-(3-ethoxyphenyl)-3-methylphenyl]-1,2,3,6-tetrahydropyridin-1-ylsulphonyl}tetrahydropyran-4-carboxymide]	24	432	152 to 154	–	–	–
